Among the test systems are NCI-H23 lung; HL-60(TB) leukemia; LOX IMVI melanoma; MALME-3M melanoma; NCI-H226 lung; HCC-2998 colon; SF-268 CNS; A498 renal; CAKI-1 renal.
Holding throughout (assay): NCI-60 cell line screen, 48 h

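All cell lines were grown in 96-well plates and treated with compound for 48 hours. At the TGI there is no net growth.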

In the case of `Cc1cc2c(C)nn(Cc3ccccc3)c2c(C(=O)O)c1C`, the TGI with NCI-H23 lung, with HL-60(TB) leukemia, in the experiment with LOX IMVI melanoma, with MALME-3M melanoma, in the experiment on NCI-H226 lung and in the experiment with HCC-2998 colon was greater than 100 µM throughout. Moreover, the TGI in the experiment on SF-268 CNS is greater than 100 µM.

Turning to `CCOC(=O)NC(=O)c1cn(CCN2CCN(C(=O)NCCCCCCNC(=O)N3CCN(CCn4cc(C(=O)NC(=O)OCC)c(=O)[nH]c4=O)CC3)CC2)c(=O)[nH]c1=O`, the TGI with NCI-H23 lung, in the experiment with HL-60(TB) leukemia, in the experiment with LOX IMVI melanoma, in the experiment on MALME-3M melanoma, with HCC-2998 colon and in the experiment with SF-268 CNS was greater than 100 µM throughout. In addition, the TGI in the experiment on A498 renal is greater than 100 µM.

With `C/C=C/C(C#N)O[Si](C)(C)C` (centres undefined), the TGI in the experiment on NCI-H23 lung, in the experiment on HL-60(TB) leukemia, in the experiment with MALME-3M melanoma, with NCI-H226 lung, with HCC-2998 colon and in the experiment on CAKI-1 renal was greater than 100 µM in each case. Moreover, the TGI in the experiment with SF-268 CNS and in the experiment with A498 renal was greater than 100 µM in each case.

On to `C=C(c1ccccc1)C1(O)CCCCC1N` (centres undefined), for which the TGI in the experiment with NCI-H23 lung was greater than 100 µM; with HL-60(TB) leukemia it was 43.5 µM; in the experiment on LOX IMVI melanoma, greater than 100 µM; in the experiment on MALME-3M melanoma, greater than 100 µM; in the experiment on NCI-H226 lung, greater than 100 µM; in the experiment on HCC-2998 colon, greater than 100 µM. Besides, the TGI in the experiment on CAKI-1 renal, with SF-268 CNS and with A498 renal was greater than 100 µM in each case.

`O=C1Nc2ccccc2C1(O)C/C(=N/O)c1ccc2ccccc2c1` (centres undefined): the TGI was greater than 100 µM in the experiment on NCI-H23 lung; greater than 100 µM in the experiment on HL-60(TB) leukemia; 81.9 µM with LOX IMVI melanoma; greater than 100 µM in the experiment on MALME-3M melanoma; greater than 100 µM in the experiment with NCI-H226 lung; greater than 100 µM in the experiment with HCC-2998 colon. Moreover, the TGI in the experiment with SF-268 CNS and in the experiment with A498 renal was greater than 100 µM each time.

Take `Cn1c(=O)c(N=Nc2c(=O)n(C)c(=O)n3c2[nH]c2ccccc23)c2[nH]c3ccccc3n2c1=O`: the TGI in the experiment on NCI-H23 lung, in the experiment on HL-60(TB) leukemia, in the experiment on LOX IMVI melanoma, with MALME-3M melanoma, with NCI-H226 lung and in the experiment with HCC-2998 colon was greater than 100 µM each time. The TGI with CAKI-1 renal, in the experiment on SF-268 CNS and in the experiment on A498 renal was greater than 100 µM in each case.

For the molecule `COc1ccc2nccc(C3=CCC4CCN(C(=O)c5ccccc5)C3C4)c2c1` (centres undefined), the TGI with NCI-H23 lung, with HL-60(TB) leukemia, in the experiment on LOX IMVI melanoma, in the experiment with MALME-3M melanoma, with HCC-2998 colon and in the experiment with CAKI-1 renal was greater than 100 µM throughout. Also, the TGI in the experiment on SF-268 CNS and in the experiment on A498 renal was greater than 100 µM throughout.

Consider `O=C1C2C3C=C4c5ccccc5N(c5ccccc5)C4(C2C(=O)N1c1ccccc1)C1C(=O)N(c2ccccc2)C(=O)C31` (centres undefined), for which the TGI in the experiment with NCI-H23 lung, with HL-60(TB) leukemia, in the experiment on LOX IMVI melanoma, in the experiment with MALME-3M melanoma, in the experiment with HCC-2998 colon and in the experiment on CAKI-1 renal was greater than 100 µM each time. The TGI was greater than 100 µM in the experiment with SF-268 CNS and 5.13 µM in the experiment with A498 renal.

On to `Cn1c(=O)nc2n(-c3ccc(O)cc3)c3ccccc3nc-2c1=O`, for which the TGI with NCI-H23 lung is greater than 100 µM; with HL-60(TB) leukemia it was greater than 100 µM; in the experiment on MALME-3M melanoma, 69.4 µM; in the experiment with NCI-H226 lung, greater than 100 µM; in the experiment with HCC-2998 colon it was greater than 100 µM; in the experiment with CAKI-1 renal it was greater than 100 µM. The TGI in the experiment on SF-268 CNS and with A498 renal was greater than 100 µM in each case.

As for `Cc1c(/C=N/NC(=O)c2ccccc2O)c(=O)n(-c2ccccc2)n1C`, the TGI in the experiment with NCI-H23 lung, with HL-60(TB) leukemia, in the experiment with LOX IMVI melanoma, with MALME-3M melanoma, with NCI-H226 lung and in the experiment with HCC-2998 colon was greater than 100 µM each time. In the experiment with SF-268 CNS, this molecule showed a TGI greater than 100 µM.

As for `N#CC(N)=Nc1ccccc1`, the TGI with NCI-H23 lung, in the experiment with HL-60(TB) leukemia, in the experiment with LOX IMVI melanoma, in the experiment on MALME-3M melanoma, in the experiment on NCI-H226 lung and with HCC-2998 colon was greater than 100 µM each time. In addition, the TGI in the experiment on CAKI-1 renal, in the experiment with SF-268 CNS and in the experiment on A498 renal was greater than 100 µM throughout.

With `CC(=O)OCc1c2ccccc2c(C)c2c1cc(F)c1ccccc12`, the TGI in the experiment with NCI-H23 lung is 68.4 µM; in the experiment with HL-60(TB) leukemia it was 67.8 µM; in the experiment on LOX IMVI melanoma it was 46.3 µM; with MALME-3M melanoma, greater than 100 µM; in the experiment with NCI-H226 lung, greater than 100 µM; in the experiment on HCC-2998 colon, 72.3 µM. Further, the TGI in the experiment with CAKI-1 renal is 98 µM; with SF-268 CNS, 85.3 µM; with A498 renal, greater than 100 µM.

For `O=C(COc1ccccc1Cl)N1N=C(c2ccc(Cl)cc2)CC1(O)c1ccccc1` (centres undefined), the TGI with NCI-H23 lung, in the experiment on HL-60(TB) leukemia, with LOX IMVI melanoma, in the experiment on MALME-3M melanoma, in the experiment on NCI-H226 lung and with HCC-2998 colon was greater than 100 µM throughout. The TGI in the experiment with CAKI-1 renal and with SF-268 CNS was greater than 100 µM in each case.

Regarding `O=C(/C=C/c1ccccc1)Oc1cccc2cccnc12`, the TGI in the experiment on NCI-H23 lung was 20 µM; with HL-60(TB) leukemia it was greater than 28.1 µM; with LOX IMVI melanoma it was greater than 100 µM; with MALME-3M melanoma, 11.4 µM; in the experiment on NCI-H226 lung, greater than 66.7 µM; in the experiment with HCC-2998 colon, greater than 100 µM. Further, the TGI with CAKI-1 renal came out at 83.2 µM; in the experiment on SF-268 CNS, 13.7 µM.

For `Nc1ncnc2c1ncn2C1OC(CSCC(F)(F)F)C(O)C1O` (centres undefined), the TGI with NCI-H23 lung, in the experiment with HL-60(TB) leukemia, in the experiment on LOX IMVI melanoma, in the experiment with MALME-3M melanoma, in the experiment on NCI-H226 lung and in the experiment with HCC-2998 colon was greater than 100 µM in each case. Further, the TGI in the experiment on CAKI-1 renal and in the experiment on SF-268 CNS was greater than 100 µM in each case.

Take `Cn1ccnc1CCc1c(Cl)cccc1Cl`: the TGI in the experiment on NCI-H23 lung, in the experiment with HL-60(TB) leukemia, in the experiment on LOX IMVI melanoma, in the experiment with MALME-3M melanoma, with NCI-H226 lung and in the experiment with CAKI-1 renal was greater than 100 µM in each case. The TGI with SF-268 CNS and with A498 renal was greater than 100 µM in each case.

(Values after PubChem BioAssay (NCI).)
